According to patent publication US20060128737A1, “Androgen receptor agonists” (KAKEN PHARMACEUTICAL CO., LTD., priority 2003, published 2006):

What was measured:
[1] = target: T1, rat androgen receptors (rat AR) (Rattus norvegicus, UniProt P15207); experiment: Test for competitive binding to rat androgen receptors (rat AR); details: RBA=100×(IC50 of hydroxyflutamide)/(IC50 of compound); 3H-testosterone, rat prostate AR fraction
T1 construct: from tissue; host or cells: prostate of orchiectomized 11-week-old male SD rats (cytosolic supernatant of homogenate)
T1 sequence (P15207 1-902): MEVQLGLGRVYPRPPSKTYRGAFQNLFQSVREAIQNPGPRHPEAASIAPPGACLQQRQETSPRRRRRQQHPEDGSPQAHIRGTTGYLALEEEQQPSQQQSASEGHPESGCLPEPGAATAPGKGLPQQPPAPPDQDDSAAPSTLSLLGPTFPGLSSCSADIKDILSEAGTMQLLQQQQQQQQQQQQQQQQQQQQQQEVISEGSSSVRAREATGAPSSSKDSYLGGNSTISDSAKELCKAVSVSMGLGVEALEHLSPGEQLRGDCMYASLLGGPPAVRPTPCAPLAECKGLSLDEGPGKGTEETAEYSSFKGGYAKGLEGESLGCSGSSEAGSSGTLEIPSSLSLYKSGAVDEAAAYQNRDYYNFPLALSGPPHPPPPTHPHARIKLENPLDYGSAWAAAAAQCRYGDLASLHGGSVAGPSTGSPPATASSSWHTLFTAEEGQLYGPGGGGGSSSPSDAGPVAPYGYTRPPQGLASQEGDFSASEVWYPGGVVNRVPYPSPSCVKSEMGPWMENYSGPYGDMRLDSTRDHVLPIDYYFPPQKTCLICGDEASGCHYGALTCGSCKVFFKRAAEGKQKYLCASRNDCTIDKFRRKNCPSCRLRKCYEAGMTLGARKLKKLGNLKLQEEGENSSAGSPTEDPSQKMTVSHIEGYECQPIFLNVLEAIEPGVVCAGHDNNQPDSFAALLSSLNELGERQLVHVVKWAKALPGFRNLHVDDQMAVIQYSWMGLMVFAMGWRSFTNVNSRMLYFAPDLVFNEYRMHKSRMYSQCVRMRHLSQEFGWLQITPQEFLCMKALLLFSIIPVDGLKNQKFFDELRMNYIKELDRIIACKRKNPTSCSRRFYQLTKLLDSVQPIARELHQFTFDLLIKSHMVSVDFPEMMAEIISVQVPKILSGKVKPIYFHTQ
Protocol: Preparation of a rat AR fraction: Prostates were harvested into ice-cooled ET buffer (10 mM Tris, 1 mM EDTA, 5 mM DTT, 10 mM sodium molybdate, pH 7.4) 3 days after orchiectomy in 11-week-old male SD rats. The prostate was finely cut, and ET buffer was added, whereafter the mixture was homogenized using a homogenizer. The homogenate was ultracentrifuged (100,000×g, 60 min, 4° C.), and the supernatant was used as a rat AR fraction (hereinafter referred to as ARF).
Binding test: ^3H-testosterone (hereinafter referred to as ^3H-T) was diluted with ET buffer. Dihydrotestosterone (DHT) was prepared so as to have a final concentration of 1 μM which was 400 times the maximum concentration of ^3H-T (2.5 nM). The ^3H-T solution was added to a 1.5 ml tube containing DHT, no DHT, or various concentrations of a test compound. Further, 200 μg ARF was added to adjust the final volume to 100 μl. The mixture was incubated for 2 hours at 4° C., and then 300 μl of a 0.05% dextran T70-1.0% activated carbon solution was added. The mixture was further incubated for 15 minutes in ice to remove the free ^3H-T by adsorption. After centrifugation (4° C., 2,500 rpm, 5 min), 275 μl of the supernatant was harvested into a liquid scintillation vial, and 2 ml of Clear Sol was added. The mixture was stirred, allowed to stand, and measured for ^3H radioactivity with a liquid scintillation counter.
Calculation of the relative binding inhibition rate: The binding inhibition rate (%) of the compound according to the present invention was calculated from the following equation, and the 50% inhibition concentration (IC50) was calculated by the probit analysis of the concentration-binding inhibition curve.
The relative binding inhibition rate (RBA: Relative Binding Affinity) was determined from the following equation (Endocrinology 138, 863-870, 1997): RBA=100×(IC50 of hydroxyflutamide)/(IC50 of a compound of the present invention)

[2] = tested on: orchiectomized (ORX) rats; experiment: Test Example 4: effect on prostate, levator ani muscle and femoral bone mineral density in ORX rats (subcutaneous); format: in vivo, rat; details: for Prostate weight as % of the level of the sham control group: 30 mg/kg sc; for Femoral bone mineral density / Weight of levator ani muscle / Weight of prostate: 30 mg/kg sc once daily, 5 days a week, 4 weeks
Protocol: Testes were removed from 12-week-old male SD rats. Starting on the next day, the compound of Example 113 or 114 (30 mg/kg) or DHT (10 mg/kg) was subcutaneously administered once daily for four consecutive weeks on a 5-day-a-week basis. The Example compounds and DHT were dissolved in dimethyl sulfoxide and diluted 10-fold with olive oil to prepare solutions with various concentrations for use in the test. In an ORX control group, dimethyl sulfoxide as diluted 10-fold with olive oil was used for the test. […] On the next day after final administration, the wet weights of the ventral prostate and levator ani muscle were measured and the right femoral bone mineral density was measured by DEXA (double energy X-ray absorption) to evaluate the in vivo efficacy of the compounds of Example 113 and 114.

[3] = tested on: orchiectomized (ORX) rats; experiment: Test Example 3: effect on prostate, levator ani muscle and femoral bone mineral density in ORX rats (subcutaneous); format: in vivo, rat
Protocol: Testes were removed from 12-week-old male SD rats. Starting on the next day, the compound of Example 12 or 65 (30 mg/kg) or DHT (0.1, 1, 10 mg/kg) was subcutaneously administered once daily for four consecutive weeks on a 5-day-a-week basis. The Example compounds and DHT were dissolved in dimethyl sulfoxide and diluted 10-fold with olive oil to prepare solutions with various concentrations for use in the test. In an ORX control group, dimethyl sulfoxide as diluted 10-fold with olive oil was used for the test. Rats which had been falsely operated on without orchiectomy were used as a sham control group. On the next day after final administration, the wet weights of the ventral prostate and levator ani muscle were measured and the right femoral bone mineral density was measured by DEXA (double energy X-ray absorption) to evaluate the in vivo efficacy of the compounds of Example 12 and 65.

[4] = 30 mg/kg sc once daily, 5 days a week, 4 weeks

**Q.** Which results are given for CC(C)(CNC(=O)c1ccc(OC(F)(F)F)cc1)[C@H]1Nc2ccc(C#N)cc2[C@H]2OCC[C@H]21 (relative stereo) [Example 113, (3aS*,4S*,9bS*)-N-[2-(8-cyano-2,3,3a,4,5,9b-hexahydro-furo[3,2-c]quinolin-4-yl)-2-methyl-propyl]-4-trifluoromethoxybenzamide]?
**A.** RBA (Relative Binding Affinity) [1]: 58; Prostate weight as % of the level of the sham control group [2]: about 40%; Femoral bone mineral density [2]: 148 ± 3 mg/cm^2; Weight of levator ani muscle [2]: 65 ± 6 mg/100 g body weight; Weight of prostate [2]: 59 ± 16 mg/100 g body weight

**Q.** Which “RBA (Relative Binding Affinity)” value [1] does the source give for CC(C)(O)C(=O)Nc1ccc([N+](=O)[O-])c(C(F)(F)F)c1 [Hydroxyflutamide, hydroxyflutamide, reference compound] here?
**A.** The value was 100.

**Q.** Which “RBA (Relative Binding Affinity)” value [1] does the source give for CCOc1ccc(C(=O)NCC(C)(C)[C@H]2Nc3ccc([N+](=O)[O-])cc3C3OCC[C@H]32)cc1 (some centres unmarked) [Example 20] here?
**A.** Its value is 161.

**Q.** Which results are given for CCOc1ccc(C(=O)NCC(C)(C)[C@H]2Nc3ccc(C#N)cc3[C@H]3OCC[C@H]32)cc1 (relative stereo) [Example 114, (3aS*,4S*,9bS*)-N-[2-(8-cyano-2,3,3a,4,5,9b-hexahydro-furo[3,2-c]quinolin-4-yl)-2-methyl-propyl]-4-ethoxybenzamide]?
**A.** RBA (Relative Binding Affinity) [1]: 55; Prostate weight as % of the level of the sham control group [2]: about 60%; Femoral bone mineral density [2]: 150 ± 8 mg/cm^2; Weight of levator ani muscle [2]: 66 ± 11 mg/100 g body weight; Weight of prostate [2]: 86 ± 17 mg/100 g body weight

**Q.** CC(C)(CNC(=O)c1ccc(Br)cc1)[C@H]1Nc2ccc([N+](=O)[O-])cc2C2OCC[C@H]21 (relative stereo) [Example 12, (3aS*,4S*,9bS*)-4-bromo-N-[2-methyl-2-(8-nitro-2,3,3a,4,5,9b-hexahydro-furo[3,2-c]quinolin-4-yl)propyl]benzamide] was tested. Which “Prostate weight as % of the level of the sham control group” value ([3]; 30 mg/kg sc) did it give?
**A.** Its value is “about 35%”.

**Q.** And the “Femoral bone mineral density” value [3, 4]?
**A.** Its value is 122 ± 5 mg/cm^2.

**Q.** What about the “Weight of levator ani muscle” value [3, 4] of the same compound?
**A.** Its value is 54 ± 5 mg/100 g body weight.

**Q.** And the Weight of prostate [3, 4]?
**A.** Its Weight of prostate is 36 ± 6 mg/100 g body weight.

**Q.** And the “RBA (Relative Binding Affinity)” value [1]?
**A.** Its value is 94.
